Reference: US20240425497A1, “Cbl-b Inhibitors and Methods of Use Thereof” (ARCUS BIOSCIENCES, INC., priority 2023, published 2024)

Legend:
Jurkat cells = experiment: IL-2 secretion assay in CD3/CD28-activated Jurkat cells (AlphaLISA); format: cell-based, human; conditions: CD3/CD28 activation, 24 h
In short: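 Jurkat cells in Opti-MEM (50,000/well) preincubated 1 h at 37° C with compound (16-point 1:2 dilution, final 10 μM to […]), then activated with CD3/CD28 T cell activator for 24 h at 37° C. Secreted IL-2 in supernatant quantified by AlphaLISA; EC50 from 4-parameter logistic fit.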

Cbl-b = Cbl-b (Homo sapiens (Human), UniProt Q13191); experiment: Cbl-b probe displacement HTRF binding assay; conditions: 0.4 nM biotinylated Cbl-b, 150 nM BODIPY probe
Chain of Cbl-b (Q13191 whole entry, species assumed): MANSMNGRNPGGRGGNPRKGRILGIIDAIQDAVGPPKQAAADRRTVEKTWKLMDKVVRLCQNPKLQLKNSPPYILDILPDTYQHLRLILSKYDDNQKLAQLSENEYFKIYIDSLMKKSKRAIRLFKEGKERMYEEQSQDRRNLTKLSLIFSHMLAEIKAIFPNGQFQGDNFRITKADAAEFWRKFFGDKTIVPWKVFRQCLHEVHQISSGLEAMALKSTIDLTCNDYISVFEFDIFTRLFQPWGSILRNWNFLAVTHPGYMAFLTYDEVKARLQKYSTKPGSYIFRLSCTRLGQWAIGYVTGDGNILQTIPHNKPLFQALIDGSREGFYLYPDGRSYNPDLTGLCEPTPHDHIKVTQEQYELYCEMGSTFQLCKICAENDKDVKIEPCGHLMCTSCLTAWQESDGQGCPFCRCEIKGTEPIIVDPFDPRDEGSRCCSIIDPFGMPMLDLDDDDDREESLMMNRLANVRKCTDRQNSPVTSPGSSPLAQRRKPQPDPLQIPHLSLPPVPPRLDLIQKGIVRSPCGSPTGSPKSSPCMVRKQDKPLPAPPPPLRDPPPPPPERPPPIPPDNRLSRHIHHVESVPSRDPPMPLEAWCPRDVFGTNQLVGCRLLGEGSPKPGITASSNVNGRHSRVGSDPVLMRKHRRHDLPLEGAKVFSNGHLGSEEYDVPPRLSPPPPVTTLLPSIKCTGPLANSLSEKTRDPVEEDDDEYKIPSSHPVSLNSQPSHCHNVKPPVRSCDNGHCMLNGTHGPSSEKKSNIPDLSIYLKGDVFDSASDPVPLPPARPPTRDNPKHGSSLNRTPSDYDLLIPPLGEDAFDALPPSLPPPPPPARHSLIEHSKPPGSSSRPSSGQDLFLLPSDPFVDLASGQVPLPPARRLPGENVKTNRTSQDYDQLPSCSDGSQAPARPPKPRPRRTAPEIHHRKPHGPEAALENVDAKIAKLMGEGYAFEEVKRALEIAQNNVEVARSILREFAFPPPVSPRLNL
In short: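 Biotinylated Cbl-b (0.4 nM final) was preincubated 60 min at room temperature with compound (20-point 1:2 series, top 10 μM final), then BODIPY probe (150 nM final) was added for 15 min before streptavidin-terbium cryptate. Buffer was 20 mM Hepes, 150 mM NaCl, 0.01% Triton X-100, 0.5 mM TCEP, 0.01% BSA; IC50 was derived from a four-parameter fit of HTRF signal loss.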

Compound | EC50 (Jurkat cells; Homo sapiens) [nM] | IC50 (Cbl-b) [nM] | EC50 (Jurkat cells) [nM]
C[C@H]1CCCN(Cc2cc3c(C#N)cn(-c4cc(-c5c(C(=O)N6CC(F)C6)cnn5C)cc(C5CC5)n4)c(=O)c3[nH]2)C1 [Example 45, 2-{[(S)-3-methyl-1-piperidyl]methyl}-6-(6-cyclopropyl-4-{4-[(3-fluoro-1-azetidinyl)carbonyl]-1-methyl-5-pyrazolyl}-2-pyridyl)-7-oxo-1,6-dihydro-1,6-diaza-4-indenecarbonitrile] | 100 to 1000 | < 100 | –
C[C@H]1CCCN(Cc2[nH]c3c(=O)n(-c4cc(-c5ccc(F)cc5C(=O)N5CC(F)C5)cc(C5CC5)n4)cc(C#N)c3c2Cl)C1 [Example 46, 2-{[(S)-3-methyl-1-piperidyl]methyl}-3-chloro-6-(6-cyclopropyl-4-{4-fluoro-2-[(3-fluoro-1-azetidinyl)carbonyl]phenyl}-2-pyridyl)-7-oxo-1,6-dihydro-1,6-diaza-4-indenecarbonitrile] | < 100 | < 100 | –
CC(c1cc2ncn(-c3cc(-c4ccc(F)cc4C(=O)N4CC(F)C4)cc(C4CC4)n3)c(=O)c2[nH]1)N1CCO[C@H](C)C1 (stereo partly drawn) [Example 47, 2-{1-[(R)-2-methyl-4-morpholinyl]ethyl}-6-(6-cyclopropyl-4-{4-fluoro-2-[(3-fluoro-1-azetidinyl)carbonyl]phenyl}-2-pyridyl)-1,6-dihydro-1,4,6-triaza-7-indenone] | 100 to 1000 | < 100 | –
Cc1cn(-c2cc(-c3ccc(F)cc3C(=O)N3CC(F)C3)cc(C3CC3)n2)c(=O)c2[nH]c([C@H]3CCCN3)nc12 [Example 49, 5-[6-cyclopropyl-4-[4-fluoro-2-(3-fluoroazetidine-1-carbonyl)phenyl]pyridin-2-yl]-7-methyl-2-[(2R)-pyrrolidin-2-yl]-3H-imidazo[4,5-c]pyridin-4-one] | > 5000 | < 100 | –
Cc1cn(-c2cc(-c3ccc(F)cc3C(=O)N3CC(F)C3)cc(C3CC3)n2)c(=O)c2[nH]c([C@@H]3CCCN3)nc12 [Example 50, 5-[6-cyclopropyl-4-[4-fluoro-2-(3-fluoroazetidine-1-carbonyl)phenyl]pyridin-2-yl]-7-methyl-2-[(2S)-pyrrolidin-2-yl]-3H-imidazo[4,5-c]pyridin-4-one] | > 5000 | 100 to 1000 | –

The next lines start with the values.

EC50 (Jurkat cells; Homo sapiens) [nM] | IC50 (Cbl-b) [nM] | EC50 (Jurkat cells) [nM] | Compound
< 100 | < 100 | – | C[C@H]1CCCN(Cc2nc3c(C(F)(F)F)cn(-c4cc(-c5ccc(F)cc5C(=O)N5CC(F)C5)cc(C5CC5)n4)c(=O)c3[nH]2)C1 [Example 48, 5-[6-cyclopropyl-4-[4-fluoro-2-(3-fluoroazetidine-1-carbonyl)phenyl]pyridin-2-yl]-2-[[(3S)-3-methylpiperidin-1-yl]methyl]-7-(trifluoromethyl)-3H-imidazo[4,5-c]pyridin-4-one]
– | < 100 | 100 to 1000 | N#Cc1c[nH]c2c(=O)n(-c3cc(-c4ccc(F)cc4C(=O)C4CC(F)C4)cc(C4CC4)n3)cc(C(F)(F)F)c12 (centres unmarked) [Example 51, 6-[6-cyclopropyl-4-[4-fluoro-2-(3-fluorocyclobutanecarbonyl)phenyl]pyridin-2-yl]-7-oxo-4-(trifluoromethyl)-1H-pyrrolo[2,3-c]pyridine-3-carbonitrile]
100 to 1000 | < 100 | – | O=C(c1cc(F)ccc1-c1cc(C2CC2)nc(-n2cc(C(F)(F)F)c3cc(CO)[nH]c3c2=O)c1)C1CC(F)C1 (centres unmarked) [Example 52, 6-[6-cyclopropyl-4-[4-fluoro-2-(3-fluorocyclobutanecarbonyl)phenyl]pyridin-2-yl]-2-(hydroxymethyl)-4-(trifluoromethyl)-1H-pyrrolo[2,3-c]pyridin-7-one]
100 to 1000 | < 100 | – | N#Cc1c(CO)[nH]c2c(=O)n(-c3cc(-c4ccc(F)cc4C(=O)C4CC(F)C4)cc(C4CC4)n3)cc(C(F)(F)F)c12 (centres unmarked) [Example 53, 6-[6-cyclopropyl-4-[4-fluoro-2-(3-fluorocyclobutanecarbonyl)phenyl]pyridin-2-yl]-2-(hydroxymethyl)-7-oxo-4-(trifluoromethyl)-1H-pyrrolo[2,3-c]pyridine-3-carbonitrile]
100 to 1000 | < 100 | – | N#Cc1cn(-c2cc(-c3ccc(F)cc3C(=O)N3CC(F)C3)cc(C3CC3)n2)c(=O)c2[nH]c(CO)cc12 [Example 54, 6-(6-cyclopropyl-4-{4-fluoro-2-[(3-fluoro-1-azetidinyl)carbonyl]phenyl}-2-pyridyl)-2-(hydroxymethyl)-7-oxo-1,6-dihydro-1,6-diaza-4-indenecarbonitrile]
